The subject of one experiment is Tat or GFP mRNA. As to the kind of experiment: Tat or GFP mRNA expression in HEK293T cells. The experiment is classed as cell-based. The following applies: n=3.
In the next experiment the test system is Tat lysine mutants. The following applies: TT-44881 60 μM; for Tat degradation, single or combined lysine mutations / Tat degradation, additional lysine mutations to K28R, K29R and K41R: TT-44856 40 μM; for Tat degradation, single or combined lysine mutations / Tat degradation, K28R, K29R and K41R: n=1; for Tat degradation, additional lysine mutations to K28R, K29R and K41R: n=2; for Tat degradation, K28R, K29R and K41R: TT-44856 and TT-44863 40 μM. The source says:
Tat 86 a.a. has 9 lysine residues (FIG. 8D) that could be engaged by lysine 48-linked ubiquitin chains or nonconventional ubiquitin chains, i.e., non-Lys-48 or non-Lys-63, to be degraded through the 26S proteasomal pathway^3738. […] Tat lysine residues required for leads' degradation engagement can be determined.
In addition to K28-29-K41R, other Tat's lysine residues were mutated and degradation assays performed in the presence of TT-44881 or TT-44856.

Another experiment concerns HIV Tat. As to the kind of experiment: Tat-TAR assay (HIV LTR luciferase transactivation, PL11 cells). The format is cell-based. The following applies: for activity against Tat 86 a.a. from different HIV clades: HIV clade B, C and E, n=1; for IC50 against Tat 86 and 101 residues (comparison): Tat 86 a.a. vs 101 a.a. The text has this:
Tat is a 14 kDa protein that is synthesized from an mRNA joined from 2 coding exons (FIG. 1B). The first exon encodes amino acids 1-72 and (in most strains of HIV), the second exon encodes amino acids 73-101. An N-terminal 86-amino acid form of Tat produced in a few laboratory-passaged virus strains is frequently used to study Tat. The classic cell-based Tat transactivation assay of the HIV LTR driving luciferase was optimized as a reporter gene for HTS9 (FIG. 2A). […] LTR activation is triggered by transfection of a plasmid expressing HIV-1HXB3 Tat (101 a.a.) driven by the phosphoglycerate (PGK) promoter.

A further experiment concerns the target Tat F38A (Human immunodeficiency virus type 1 (HXB3 ISOLATE), UniProt P69698, F38A). The following applies: TT-44856 and TT-44863 40 μM, TT-44881 60 μM. The text has this: (§1) The molecular docking of HIV Tat protein bound to dCA was previously reported, informed by a series of more than 60 analogs of dCA, using AutoDock Vina with the NMR HIV Tat Mal protein (D clade) as a template (Protein data Bank, PDB entry 1K5K)21. […] Single changes to residues Y26 and F38 decrease Tat transactivation activity^33-36. […] To validate the molecular docking model, Tat variants with either deletions or mutated residues were used in degradation assays in the presence of leads.

In the next experiment the target is Tat Y26A (Human immunodeficiency virus type 1 (HXB3 ISOLATE), UniProt P69698, Y26A). The following applies: TT-44856 and TT-44863 40 μM, TT-44881 60 μM.
Description: as §1

Experiment [1] deals with Tat variants with cysteine or core regions truncated (Human immunodeficiency virus type 1 (HXB3 ISOLATE), UniProt P69698). The following applies: TT-44856 and TT-44863 40 μM, TT-44881 60 μM.
Description: as §1

A further experiment relates to PL11 cells. As to the kind of experiment: Tat independent transactivation counter-screen with TNFα, PL11 cells. To be noted: PL11 cells activated with TNFα. The experiment is classed as cell-based. The text has this:
Tat is a 14 kDa protein that is synthesized from an mRNA joined from 2 coding exons (FIG. 1B). The first exon encodes amino acids 1-72 and (in most strains of HIV), the second exon encodes amino acids 73-101. An N-terminal 86-amino acid form of Tat produced in a few laboratory-passaged virus strains is frequently used to study Tat. The classic cell-based Tat transactivation assay of the HIV LTR driving luciferase was optimized as a reporter gene for HTS9 (FIG. 2A). The assay concept is exceptionally robust, includes all the cellular components needed for transcriptional activation, and is very well-suited for an HTS for Tat antagonists. Compared with alternative approaches, this classic assay consistently outperformed the others. […] LTR activation is triggered by transfection of a plasmid expressing HIV-1HXB3 Tat (101 a.a.) driven by the phosphoglycerate (PGK) promoter. The assay called “Tat-TAR assay” was validated, and found robust and very well suited for an HTS platform, with a signal to background ratio of 407:1, a signal to noise ratio of 10:1, and a Z′=0.67. The cytotoxicity screen was performed in parallel (Cell-Titer-Glo, Promega), showing a signal to background ratio 898:1, signal to noise ratio 21:1 and a Z′=0.86. […] These hits were counter-screened in a Tat independent transactivation assay using TNFα to activate PL11 cells, resulting in the selection of 30 hits.

A further experiment concerns HIV NL4.3 strain. As to the kind of experiment: HIV infectivity assay, reporter cell line HeLa-CD4-LTR-LacZ, β-Gal activity (Tat protein inhibition). The experiment is classed as cell-based, HIV-1 (NL4.3). The method in brief:
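HeLa-CD4-LTR-LacZ reporter cells (β-Gal under HIV 5′ LTR) infected with HIV NL4.3; β-Gal activity read 72 h post infection, with parallel Cell-Titer-Glo viability. OM10.1 carry a single wild-type provirus; ACH-2 a single provirus with TAR C37T mutation, defective Tat-TAR feedback.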

Setting [2] is: Human immunodeficiency virus 1, 72 h, read-out: IC50 against HIV infection, HeLa-CD4-LTR-LacZ, HIV NL4.3, β-Gal 72 hrs post infection.

Like-named read-outs stand apart in the source and are kept apart here.

Sequence of Tat F38A (P69698 whole entry F38A): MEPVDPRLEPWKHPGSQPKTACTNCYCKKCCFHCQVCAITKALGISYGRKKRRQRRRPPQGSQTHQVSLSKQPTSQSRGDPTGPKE
Sequence of Tat Y26A (P69698 whole entry Y26A): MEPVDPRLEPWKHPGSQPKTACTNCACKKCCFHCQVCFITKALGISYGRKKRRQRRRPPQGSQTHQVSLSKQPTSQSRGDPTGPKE

The term IC50 denotes the concentration needed to halve the response being measured. On to `CC(C(=O)NCCCn1ccnc1)(c1ccccc1)c1ccccc1` [TT-44856], for which the “effect on Tat or GFP mRNA expression” value with Tat or GFP mRNA is reported as “without affecting Flag-Tat mRNA levels”. Moreover, in the experiment with Tat lysine mutants, the “Tat degradation, single or combined lysine mutations” value is “all the mutants were similarly degraded to the control”; the “Tat degradation, additional lysine mutations to K28R, K29R and K41R” value is “required either K50/51, K71 or K85”; the “Tat degradation, K28R, K29R and K41R” value is “do not prevent lead hits induced Tat degradation”. Further, in the experiment with HIV Tat, the “activity against Tat 86 a.a. from different HIV clades” value (“activity … from different HIV clades” for short) was “activity was confirmed”; the “IC50 against Tat 86 and 101 residues (comparison)” value (“IC50 … (comparison)” for short) is reported as “Equivalent IC50”. For the same compound, at Tat F38A, the “Tat degradation, F38A mutation” value is listed as “only weakly reduced lead hits mediated degradation”. Moreover, the “Tat degradation, Y26A mutation” value at Tat Y26A is on record as “ablated lead hits' ability to mediate Tat degradation”. Also, the “Flag-Tat degradation, cysteine or core regions truncated” value (“Flag-Tat degradation” below) in experiment [1] was “no longer degraded Flag-Tat”. In the experiment on PL11 cells, the “Tat specificity in TNFα counter-screen” value is on record as “Tat specific”. The IC50 in the experiment with HIV NL4.3 strain (setting [2]) was 20.5 ± 9.5 µM. The IC50 in the experiment with HIV NL4.3 strain (Human immunodeficiency virus 1, read-out: Infectivity IC50, HeLa-CD4-LTR-LacZ, analogs of TT-44856 (Table 3)) fell in the range of 1 to 20 µM.
As to `COCCOc1ccc(C(F)(F)F)cc1NC(=O)Cn1cc(C(F)(F)F)cc(Cl)c1=O` [TT-44863], the “effect on Tat or GFP mRNA expression” value in the experiment on Tat or GFP mRNA is listed as “without affecting Flag-Tat mRNA levels”. Also, the “Tat degradation, K28R, K29R and K41R” value in the experiment with Tat lysine mutants is “do not prevent lead hits induced Tat degradation”. Besides, in the experiment on HIV Tat, the “activity … from different HIV clades” value is “activity was confirmed”; the “IC50 … (comparison)” value is recorded as “Equivalent IC50”. The “Tat degradation, F38A mutation” value at Tat F38A is listed as “only weakly reduced lead hits mediated degradation”. For the same compound, the “Tat degradation, Y26A mutation” value at Tat Y26A is recorded as “ablated lead hits' ability to mediate Tat degradation”. The “Flag-Tat degradation” value in experiment [1] is reported as “no longer degraded Flag-Tat”. In addition, in the experiment on PL11 cells, the “Tat specificity in TNFα counter-screen” value is “Tat specific”. The IC50 in the experiment on HIV NL4.3 strain (setting [2]) was determined as 6 ± 1.3 µM. For the same compound, in the experiment on HIV NL4.3 strain (Human immunodeficiency virus 1, read-out: Infectivity IC50, HeLa-CD4-LTR-LacZ, analogs of TT-44863 (Table 2)), the IC50 was in the range of 1 to 10 µM.
As for `O=C(CCCCN1CCCC1=O)c1nn(-c2ccccc2)c2c1CCC2` [TT-44881], the “effect on Tat or GFP mRNA expression” value with Tat or GFP mRNA is listed as “without affecting Flag-Tat mRNA levels”. Moreover, in the experiment on Tat lysine mutants, the “Tat degradation, single or combined lysine mutations” value is listed as “all the mutants were similarly degraded to the control”; the “Tat degradation, additional lysine mutations to K28R, K29R and K41R” value is given as “mutation of the K19 or K71 to arginine reduced TT-44881 induced Tat degradation”; the “Tat degradation, K28R, K29R and K41R” value is “do not prevent lead hits induced Tat degradation”. In addition, in the experiment with HIV Tat, the “activity … from different HIV clades” value is listed as “activity was confirmed”; the “IC50 … (comparison)” value was “Equivalent IC50”. Further, at Tat F38A, the “Tat degradation, F38A mutation” value is on record as “only weakly reduced lead hits mediated degradation”. Further, on Tat Y26A, the “Tat degradation, Y26A mutation” value is “ablated lead hits' ability to mediate Tat degradation”. The “Flag-Tat degradation” value in experiment [1] is given as “no longer degraded Flag-Tat”. Besides, in the experiment on PL11 cells, the “Tat specificity in TNFα counter-screen” value is “Tat specific”. Moreover, the IC50 with HIV NL4.3 strain (setting [2]) was determined as 19.7 ± 4.5 µM. In addition, in the experiment with HIV NL4.3 strain (Human immunodeficiency virus 1, read-out: Infectivity IC50, HeLa-CD4-LTR-LacZ, analogs of TT-44881 (Table 1)), the IC50 was in the range of 1 to 20 µM.

(Values after patent US20260355184A1, “SMALL MOLECULE DEGRADERS OF HIV-1 TAT PROTEIN” (priority 2022, published 2026).)
